Measurements as given in patent EP1779117B1, “METHODS FOR MEASURING ADAMTS13 ACTIVITY ON THE SURFACE OF PLATELETS” (American Diagnostica Inc., priority 2004, dated 2006).
Starred links: 1 amine or outer side, 2 acyl side, 3 side chain; linkers in the order of their positions; H or OH if unused. Residues, ends and D or L forms follow the SMILES beside them. *: point of attachment. EDANS = O=S(=O)(O)c1cccc2c(NCCN*)cccc12; pNA = O=[N+]([O-])c1ccc(N*)cc1; AMC = Cc1cc(=O)oc2cc(N*)ccc12; Suc = O=C(CCC(=O)[*:2])[*:1]

Columns and labels:
ADAMTS13 = test: Cleavage of peptidyl substrates by ADAMTS13 in PRP (optical density / fluorescence); format: biochemical; conditions: for cleavage by ADAMTS13 in PRP: normal PRP 20 µl, 10 mM Tris-HCl pH 8.0, 37° C, Ex 360 nm/ Em 460 nm
Procedure: As discussed above, Furlan et al. reported that some peptidyl-pNA moieties, such as XLY-pNA and XVY-pNA, were not substrates for ADAMTS13. We prepared LVY-pNA and tested it for its ability to be cleaved by ADAMTS 13. The results shown in Figure 2 confirm the findings of Furlan et al., i.e., LVY-pNA was not cleaved by ADAMTS13.
In order to determine the effect of modifying the length of the peptide sequence conjugated to the AMC fluorochrome, normal PRP (20 µl) was incubated at 37° C with a final concentration of 0.8 mM Suc-LLVY-AMC or LVY-AMC in 10 mM Tris-HCl pH 8.0 buffer in total volume of 200 µl. Fluorescence was measured using a microtiter fluorophotometric plate reader (Ex 360 nm/ Em 460 nm).

[1] = test system: ADAMTS13 found on platelets; test: FRET substrate cleavage by isolated platelets; format: biochemical; conditions: 8 µg/ml substrate, 10mM Tris-HCl pH 8.0, 37°C, Ex 360 nm/ Em 440 nm, Figure 4
Procedure: ADAMTS13 activity was measured using a fluorescent substrate attached to a donor moiety and an acceptor moiety that functions by fluorescence resonance energy transfer (FRET). The ADAMTS 13 selective substrate, NH2-Arg-Lys(DABCYL)-NLVYMVTGD(EDANS)-Arg-COOH, was used in this example. The NLVYMVTGD peptide sequence of this substrate is homologous to the ADAMTS13 cleavage site on VWF. The intact peptidyl substrate has low fluorescence, due to quenching of the […]. Cleavage of the substrate between the tyrosine and methionine of the peptide sequence results in an increase in fluorescence.
Isolated platelets in 10mM Tris-HCl pH 8.0 assay buffer were incubated with a final concentration of 8 µg/ml of the FRET substrate at 37°C. The fluorescence was measured in a spectrofluorometric plate reader (Ex 360 nm/ Em 440 nm). […] The skilled artisan can design other FRET substrates for measuring ADAMTS 13 activity using his or her own knowledge and the teachings herein.

Cc1cc(=O)oc2cc(NC(=O)[C@H](Cc3ccc(O)cc3)NC(=O)[C@@H](NC(=O)[C@H](CC(C)C)NC(=O)[C@H](CC(C)C)NC(=O)CCC(=O)O)C(C)C)ccc12 [Suc-LLVY-AMC, Suc-Leu-Leu-Val-Tyr-AMC] (Suc-LLVY-{AMC})
cleavage by ADAMTS13 in PRP (ADAMTS13; 0.8 mM substrate, Figure 3): cleaved | fluorescence signal over time compared to the other AMC substrate (ADAMTS13; normal PRP, 0.8 mM substrate, 37° C, Figure 3): higher signal over time

Cc1cc(=O)oc2cc(NC(=O)[C@H](Cc3ccc(O)cc3)NC(=O)[C@@H](NC(=O)[C@@H](N)CC(C)C)C(C)C)ccc12 [LVY-AMC, Leu-Val-Tyr-AMC] (H-Leu-Val-Tyr-{AMC})
cleavage by ADAMTS13 in PRP (ADAMTS13; 0.8 mM substrate, Figure 3): cleaved

NH2-Arg-Lys-(DABCYL)- Asn-Leu- Val-Tyr-Met- Val- Thr-Gly-Asp-(EDANS)-Arg-COOH ({H2N-Arg-K(DABCYL)}-NLVYMVTGD(EDANS)R-OH; also: EDANS after Asp (on Asp side chain or between Asp and Arg))
fluorescence on incubation with platelets (cleavage of FRET substrate) [1]: increased fluorescence over time

CC(C)C[C@H](N)C(=O)N[C@H](C(=O)N[C@@H](Cc1ccc(O)cc1)C(=O)Nc1ccc([N+](=O)[O-])cc1)C(C)C [LVY-pNA] (H-Leu-Val-Tyr-pNA)
cleavage by ADAMTS13 (ADAMTS13; LVY-pNA tested as substrate, Figure 2): not cleaved
